Experimental data from publication PMC2649009 (Journal of medicinal chemistry, 2008).
Several values for one entry are separate records, joined by “and”; a condition that tells them apart may be missing. Equal entries are not always repeated.

Each compound was assayed against T1, human GVIA iPLA2 (Homo sapiens, UniProt O60733) (assay: mixed micelle-based modified Dole assay, GVIA iPLA2 inhibition). Settings: mole fraction of inhibitor in total substrate interface giving 50% inhibition.
T1 sequence (O60733 1-806): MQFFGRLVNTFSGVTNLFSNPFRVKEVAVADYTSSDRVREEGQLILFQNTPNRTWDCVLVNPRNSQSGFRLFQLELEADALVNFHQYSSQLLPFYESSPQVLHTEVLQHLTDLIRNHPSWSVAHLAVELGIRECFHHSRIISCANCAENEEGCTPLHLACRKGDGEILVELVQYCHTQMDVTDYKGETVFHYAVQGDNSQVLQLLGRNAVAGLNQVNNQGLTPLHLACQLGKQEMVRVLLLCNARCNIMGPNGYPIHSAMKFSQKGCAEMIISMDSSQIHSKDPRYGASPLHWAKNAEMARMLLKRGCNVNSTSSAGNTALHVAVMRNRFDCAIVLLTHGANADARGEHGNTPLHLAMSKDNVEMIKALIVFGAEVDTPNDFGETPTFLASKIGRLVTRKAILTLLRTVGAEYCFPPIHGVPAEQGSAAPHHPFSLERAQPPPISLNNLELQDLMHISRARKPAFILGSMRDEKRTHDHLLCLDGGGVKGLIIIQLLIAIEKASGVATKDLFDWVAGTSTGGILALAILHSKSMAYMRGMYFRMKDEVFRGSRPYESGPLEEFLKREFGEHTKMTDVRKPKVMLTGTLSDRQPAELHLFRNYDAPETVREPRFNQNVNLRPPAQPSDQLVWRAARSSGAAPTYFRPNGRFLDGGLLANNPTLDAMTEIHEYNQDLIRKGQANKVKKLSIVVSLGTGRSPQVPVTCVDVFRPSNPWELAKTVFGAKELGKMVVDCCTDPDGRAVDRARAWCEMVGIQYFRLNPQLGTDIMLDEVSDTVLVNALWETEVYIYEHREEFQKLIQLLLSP
Type: biochemical

With O=C(CCCCc1ccccc1)C(F)(F)C(F)(F)F [10a, 1,1,1,2,2-Pentafluoro-7-phenyl-heptan-3-one] the “GVIA iPLA2 XI(50)” value was 0.0073 mole fraction and 0.0073 ± 0.0007 mole fraction.

O=C(CCCCCc1ccccc1)C(F)(F)C(F)(F)F [10b, 1,1,1,2,2-Pentafluoro-8-phenyl-octan-3-one] and O=C(CCCCCCc1ccccc1)C(F)(F)C(F)(F)F [10c, 1,1,1,2,2-Pentafluoro-9-phenyl-nonan-3-one] are the same in “GVIA iPLA2 XI(50)” value: 0.0065 mole fraction for the first, 0.0065 mole fraction for the second.

Going from CCCCCCOc1ccc(CCC(=O)C(F)(F)C(F)(F)F)cc1 [compound 21, 1,1,1,2,2-Pentafluoro-5-(4-hexyloxy-phenyl)-pentan-3-one] to CCCCCCOc1ccc(CCC(=O)C(F)(F)F)cc1 [19a, 1,1,1-Trifluoro-4-(4-hexyloxy-phenyl)-butan-2-one], the “GVIA iPLA2 XI(50)” value rises from 0.0075 mole fraction to 0.0328 ±0.0035 mole fraction.

First: CCCCCCCCCCCCCCCC(=O)C(F)(F)F [compound 6, palmitoyl trifluoromethyl ketone, reference compound]
Second: CCCCCCCCCCCCCCC(F)C(=O)C(F)(F)F (stereo not shown) [compound 26, 1,1,1,3-Tetrafluoro-heptadecan-2-one]
The “GVIA iPLA2 XI(50)” value of the first is higher: 0.0195 mole fraction for the first, 0.0011 mole fraction for the second.

First: O=C(CCCCCCc1ccccc1)C(F)(F)F [12b, 1,1,1-Trifluoro-8-phenyloctan-2-one]
Second: O=C(CCCCCc1ccccc1)C(F)(F)F [12a, 1,1,1-Trifluoro-7-phenylheptan-2-one]
The “GVIA iPLA2 XI(50)” value of the first is lower: 0.0018 mole fraction for the first, 0.0025 mole fraction for the second.

Same assay, conditions: ratio of XI(50) values, 26 vs 6

With CCCCCCCCCCCCCCC(F)C(=O)C(F)(F)F (stereo not shown) [compound 26, 1,1,1,3-Tetrafluoro-heptadecan-2-one] the “potency as inhibitor of GVIA iPLA2 relative to trifluoro derivative 6” value was “approximately twenty-fold”.
